{"source": "paper PMC6024518", "about": "(International Journal of Immunopathology and Pharmacology, 2018)", "origin": "cited, not measured here", "tested_on": "SYK, JAK1, JAK2, JAK3 and other kinases", "conditions": "including JAK2"}
{"molecule": "COc1cc(Nc2ncc(F)c(Nc3ccc4c(n3)NC(=O)C(C)(C)O4)n2)cc(OC)c1OC", "note": "[R406]", "values": [{"measurement": "number of kinases inhibited more potently than SYK", "result": 24}]}
